# From patent US7498406B2, “Substantially cell membrane impermeable compound and use thereof” (priority 1999, dated 2009)
# Legend:
# [1] = Titration of cysteine with GSAO, DTNB assay; format: binding; settings: cysteine 28 μM, GSAO 0-50 μM, 10 minutes
# Description: FIG. 11. Titration of DMP or cysteine with GSAO. DMP (15 ? M corresponding to 30 μM thiols) or cysteine (28 μM) was incubated with GSAO (0-50 μM) for 10 minutes. DTNB (950 μM) was then added and the reactions incubated for a further 10 minutes. The concentration of thiol in the reactions was determined from the absorbance of the TNB dianion at 412 nm.
# A stock solution of DMP (5 μL, 50 μmol) was dissolved in DMSO (995 μL), giving a concentration of 50 mM DMP, A second dilution of the 50 mM DMP stock solution (10 μL) in pH 7.0 buffer (0.1 M HEPES, 0.3 M NaCl, 1 mM EDTA) (990 μL) gave a working solution of 500 ? M DMP. The activity of the arsenical could then be determined by the titration of varying amounts of arsenical against the DMP working solution (10 μL) in a 96-well microtitre plate, with the total volume made up to 195 μL by addition of buffer. After a 10 minute incubation at room temperature, during which time the solutions were agitated on a plate shaker, 5 μL of a 37.9 mM stock solution of DTNB (15 mg) in DMSO (1 mL) was added, and the plate incubated with shaking for another 10 minutes. The absorbance at 412 nm due to the formation of the TNB dianion was measured using a Molecular Devices Thermomax Plus (Palo Alto, Calif.) microplate reader. The extinction coefficient for the TNB dianion at pH 7.0 is 14, 150 M^−1cm^−1 at 412 nm (Riddles et al., 1983).
# [2] = system: HMEC-1 or HUVE cells; test: GSAO-B labelling of endothelial cell surface proteins; format: cell-based, human; settings: 100 μM, 30 minutes
# Description: FIG. 16. Identification of endothelial cell surface proteins that contain closely spaced dithiols). A The surface of HMEC-1 or HUVE cells (2×10^6 cells in 0.4 mL) was labelled with GSAO-B (100 μM) for 30 minutes at room temperature in the absence (lanes 1 and 3) or presence of DMP (400 μM) (lane 2). The endothelial cells were lysed and the lysate from both incubations was resolved on 4-15% SDS-PAGE, transferred to PVDF membrane, and blotted with streptavidin peroxidase to detect the GSAO-B label. The results represent labelling of 3×10^4 HMEC-1 (lanes 1 and 2) of HUVE cells (lane 3). The positions of Mr markers are shown at left. B Densitometry profile of the surface labelled proteins (lanes 1 and 3). The apparent Mr's of the individual proteins are indicated.
# Human umbilical vein endothelial cells (HUVEC) (Wall et al., 1978) and the human dermal microvascular endothelial cell line, HMEC-1 (Ades et al., 1992), were harvested and cultured as indicated. Endothelial cells (5×10^6) were detached from culture flasks using 5 mM EDTA in PBS at 37° C., washed 3 times with PBS, resuspended in PBS containing 100 μM of GSAO-B in the absence or presence of 400 μM DMP, and incubated for 30 minutes at room temperature. The cells were washed 3 times with 1 mL of PBS, resuspended in 0.2 mL of ice cold 50 mM Tris/HCl, pH 8 buffer containing 0.5 M NaCl, 1% Triton X-100, 10 μM leupeptin, 2 mM PMSF (Sigma Chemical Company, St, Louis, Mo.), 5 mM EDTA and 10 μM aprotinin (Bayer Australia Ltd., Sydney, NSW), and sonicated on ice. On some occasions the cell lysates were incubated with streptavidin-agarose (Sigma, Castle Hill, NSW) beads (25 μL of packed beads in a total volume of 1 mL) for 60 minutes at 4° C. with rotary mixing. Bound proteins were washed 5 times with 50 mM Tris/HCl, pH 8 buffer containing 0.15 M NaCl and 0.05% Triton X-100, resolved on SDS-PAGE, transferred to PVDF membrane, and the GSAO-B-labeled proteins detected by Western blot.
# [3] = system: HT1080 tumours; test: Tumour growth in mice, subcutaneous administration; format: in vivo, SCID mice; settings: 10 mg per kg per day
# Description: FIG. 25. Inhibition of human fibrosarcoma and murine Lewis lung tumour growth following systemic administration of GSAO. HT1080 or Lewis lung tumours were established in the proximal midline of female 7 to 9 week old SCID or C57Bl6/J mice, respectively. When the tumours were ˜0.1 cm^3 in volume the mice were randomised into two groups (n=5) and treated with either GSAA or GSAO at a dose of 10 mg per kg per day in 0.2 mL of PBS containing 100 mM glycine. The compounds were administered subcutaneously at a site distant from the tumour. Tumour volume and animal weight was measured every 3 days. The GSAO/GSAA HT1080 tumour volume ratio at day 17 of treatment was 0.29 (part A). The GSAO/GSAA Lewis lung tumour volume ratio at day 12 of treatment was 0.29 (part B). The data points and errors represent the mean and SE of the tumour volumes.
# Female 7 to 9 week old SCID or C57Bl6/J mice were used (Massachusetts General Hospital, Boston, Mass.). Mice were held in groups of 3 to 5 at a 12 hour day and night cycle and were fed with animal chow and water ad libidum. […] The tumours were measured in two diameters and tumour volume was calculated using the relationship, tumour volume=a×b^2×0.52, where a is the longest and b the shortest diameters in cm. […] Tumour volume and animal weight was measured every 3 days. […]
smiles,measurement,setting,value
"NC(CCC(=O)NC(CSCC(=O)Nc1ccc([As]=O)cc1)C(=O)NCC(=O)O)C(=O)O (stereo not shown) [GSAO, 4-(N-(S-glutathionylacetyl)amino)-phenylarsenoxide]",interaction with cysteine in DTNB titration,[1],any interaction of GSAO with cysteine was displaced by DTNB
same,proteins on the endothelial cell surface that bind the compound,[2],ten distinct proteins
same,inhibition of the rate of fibrosarcoma tumour growth,[3]; subcutaneous,~70%
same,GSAO/GSAA HT1080 tumour volume ratio,[3]; day 17 of treatment,0.29
